Our source for the logP values is the OPERA property sets (Mansouri et al. 2018).

As usually defined, the logP is the decadic logarithm of the partition coefficient of the neutral form, usually between octanol and water. A low value points to lower lipophilicity.

Peptide text beside a SMILES is read from it. * marks the point of attachment. NHtBu = CC(C)(C)N*

In the case of `CC(=O)N[C@@H](C)C(=O)N[C@@H](Cc1ccc(O)cc1)C(=O)N[C@@H](CC(C)C)C(N)=O` (Ac-Ala-Tyr-Leu-NH2), the logP was -0.04. For the compound `O=S(=O)(N=[N+]([O-])c1ccccc1)c1ccccc1`, the logP came to 2.87.

The compound `O=C(O)COc1cccc(O)c1` yielded a logP of 0.76. The compound `COC(=O)C1=CCCN(C)C1` returned a logP of 0.35. As for `Oc1ccccc1F`, the figure is 1.71; as for `Nc1c([N+](=O)[O-])cc(C(F)(F)F)cc1[N+](=O)[O-]`, 2.29; as for `CCC(C)C(NC(C)=O)C(=O)NC(Cc1ccccc1)C(=O)NC(C)C(N)=O` (stereo not drawn) (Ac-Ile-Phe-Ala-NH2; configuration not given here), 0.52. The value for `CC(=O)c1ccc(Br)cc1` was 2.43; that for `CSc1cccc(NC(N)=O)c1` was 1.57; that for `Nc1nc(N)nc(-c2ccc(F)cc2)n1` was 1.61.

The compound `CCN(CC)C(=O)c1cccnc1` returned a logP of 0.33. `Clc1ccc(-c2cc(Cl)ccc2Cl)c(Cl)c1` gave a logP of 6.22.

In the case of `CN1CCN(C)CC1`, the logP was -0.4.

Compound `O=C(O)C1Cc2cc(Cl)ccc2O1` (stereo not given) gave a logP of 2.11. In turn, `O=C(O)C=Cc1ccc([N+](=O)[O-])cc1` came in with a logP of 2.12. The value for `NS(=O)(=O)c1cccnc1` was -0.49. Compound `Nc1cc[nH]c(=O)n1` yielded a logP of -1.73. `Clc1cc(Cl)c(-c2ccccc2)c(Cl)c1` had a logP of 5.47.

For the compound `CC1(C)NC(=O)NC1=O`, the logP was -0.48. `O=[N+]([O-])c1ccccc1Br` returned a logP of 2.52. `Cc1cccc(Cl)c1NC1=NCCN1` came in with a logP of 1.71. The value for `CNC(=O)c1[nH]nc(C)c1[N+](=O)[O-]` was -0.23; that for `Cc1cc(C)c(N(C)C)c(C)c1` was 4.41; that for `CCN(CC)CC(=O)NC1CCc2ccccc21` (stereo not given) was 2.74. On to `C=C(C=O)CC`, for which the logP turned out to be 1.24. The value for `c1ccc(COc2cccc3cccnc23)cc1` was 3.51; that for `CN(C)C(N(C)C)=S(I)c1ccccc1Cl` (stereo not given) was -0.19. Compound `BrC(Br)(Br)Br` yielded a logP of 3.42.

As to `CN(C)/N=N/c1ccccc1I`, the logP was 3.5.

Take `CC1(C)O[C@@H]2C[C@H]3[C@@H]4C[C@H](F)C5=CC(=O)C=C[C@]5(C)[C@@]4(F)[C@@H](O)C[C@]3(C)[C@]2(C(=O)CO)O1`: the logP was 2.48. The value for `CS(=O)(=O)CC#N` was -1.42; that for `Cc1ccc(Cl)cc1` was 3.33. The value for `CC(=O)c1cccc(C(C)=O)c1` was 1.43. As for `CC(=O)OC[C@H]1O[C@H](OC(C)=O)[C@H](OC(C)=O)[C@@H](OC(C)=O)[C@@H]1OC(C)=O`, the figure is 0.63; as for `BrC=CBr`, 1.76.

With `CS(=O)(=O)c1c(F)c(F)c(F)c(F)c1F`, the logP was 1.11. The value for `COC(=O)c1cccc(N=NN(C)C)c1` was 3.12; that for `NC(=O)c1cc(N2CC2)c([N+](=O)[O-])cc1[N+](=O)[O-]` was -0.02. The value for `CCOc1ccc(O)cc1` was 1.81. For the compound `CCOP(=O)(Cc1ccc(-c2nc3ccccc3s2)cc1)N1CCCC1=O` (stereo not given), the logP worked out at 3. Take `CN(C)C(N(C)C)=S(I)c1cccc(Cl)c1` (stereo not given): the logP is -0.17. Compound `CN(C)C(N(C)C)=S(I)c1c(Cl)cc(Cl)cc1Cl` (stereo not given) came in with a logP of 0.05.

With `O=C(O)c1ccoc1`, the logP turned out to be 1.03. The value for `COc1cccc(CNC(=O)C2(O)C(C)CC3C4CCC5=CC(=O)C=CC5(C)C4(F)C(O)CC32C)c1` (stereo not given) was 3.27.

The compound `CC(C)c1ccc(OC(=O)c2ccc(N)cc2O)cc1` came in with a logP of 4.12. The compound `c1ccc2c(c1)CCC2` yielded a log partition coefficient (logP) of 3.18. `Ic1nc(I)c(I)[nH]1` registered a logP of 2.78. Consider `NNc1ccccc1`, for which the logP came to 1.25. As for `Cc1ccccc1N(C)C`, the figure is 2.85. Consider `FCCl`, for which the logP was found to be 0.51. As for `NC(=O)Oc1ccccc1`, the figure is 1.08. The compound `CCN(CC)N=Nc1ccc(C(N)=O)cc1` yielded a logP of 2.26. As for `CC#CC`, the logP came to 1.46. Turning to `Nc1ccc(C(=O)Oc2ccccc2Cl)c(O)c1`, the logP turned out to be 3.72.

The compound `CC1CC2OC(=O)C3(C)C2C(OC3(C)O)C2(C)C(=O)C=CC12` (stereo not given) had a logP of 0.3.

Turning to `OB(O)c1ccccc1`, the logP came out at 1.58. As for `ClCCOCCCl`, the figure is 1.29. Turning to `CCCCc1c(C)nc(NCC)nc1OS(=O)(=O)N(C)C`, the logP was determined as 2.7. Regarding `COc1ccc(C(c2ccc(OC)cc2)C(F)(F)F)cc1`, the logP is 4.76. The value for `CC(C)Br` was 2.14; that for `Cc1ncc([N+](=O)[O-])n1CCNC(=O)OCc1ccccc1` was 1.69; that for `c1cn[nH]c1` was 0.26. Regarding `COP(=S)(OC)Oc1cc(Cl)c(Br)cc1Cl`, the logP was 5.21. As for `CN(C)C(N(C)C)=S(I)c1ccc(Cl)c(Cl)c1Cl` (stereo not given), the figure is 0.95. As for `COc1ccc2c(c1)OC(C)(C)C=C2`, the figure is 3.35; as for `O=C(Oc1ccccc1)c1ccccc1`, 3.59. Consider `CC(=O)N[C@H](C(=O)N[C@@H](C)C(=O)N[C@H](C(N)=O)C(C)C)C(C)C` (Ac-Val-Ala-Val-NH2), for which the logP is -0.67. `FC1(F)C(F)(F)C(F)(F)C(F)(F)C(F)(F)C1(F)F` registered a logP of 2.91.

Consider `NS(=O)(=O)c1ccc(C(=O)O)cc1`, for which the lipophilicity (logP) came to 0.5. `O=C(O)CBr` returned a logP of 0.41. The value for `CC(=O)c1ccc(OCC(=O)O)cc1` was 0.87. On to `c1ccc(-c2nc3ccccc3[nH]2)cc1`, for which the logP came to 3.24. In the case of `CCCCCCCCBr`, the logP stood at 4.89. The value for `CN(C)CCN1C(=O)c2ccccc2N(C)c2ccccc21` was 2.5. In turn, `CC(=O)Nc1cccnc1` returned a logP of 0.41. `Nc1nnco1` displayed a logP of -1.44. The value for `Cc1ccc(/N=C/N(C)/C=N/c2ccc(C)cc2C)c(C)c1` was 5.5; that for `C[C@@H]1C[C@H]2[C@@H]3CCC4=CC(=O)C=C[C@]4(C)[C@@]3(F)[C@@H](O)C[C@]2(C)[C@H]1C(=O)CO` was 2.35.

Consider `NC(=O)CCCCc1ccncc1`, for which the logP was found to be 0.42. For the compound `CCc1ccc([N+](=O)[O-])cc1`, the logP is 3.03. The value for `CCN1CC(C(O)C(CC2CCCCC2)NC(=O)C(Cc2c[nH]cn2)NC(=O)C(CC(=O)N2CC(OCOCCOC)C(OCOCCOC)C2)Cc2ccccc2)OC1=O` (stereo not given) was 1.87; that for `N#CCCc1ccccc1` was 1.72. For the compound `CCCN1CCCC[C@H]1C(=O)Nc1c(C)cccc1C`, the logP was found to be 2.9. As for `CCCCCCBr`, the figure is 3.8; as for `Nc1nc(N)nc(-c2ccccc2I)n1`, 1.41; as for `c1cnn(C23CC4CC(CC(C4)C2)C3)c1`, 3.05. The value for `Oc1ccc(Cl)c2cccnc12` was 2.88; that for `COCCOc1ccccc1` was 1.73. On to `COc1ccnc2c([N+](=O)[O-])cccc12`, for which the logP was determined as 1.92. Compound `Clc1cc(-c2ccccc2)c(Cl)c(Cl)c1Cl` yielded a logP of 6.41.

The compound `Oc1ccc2ccccc2c1` displayed a logP of 2.7.

As for `COP(=S)(OC)Oc1ccc(Sc2ccc(OP(=S)(OC)OC)cc2)cc1`, the logP came out at 5.96. `CCOP(=S)(OCC)SCCS(=O)(=O)CC`: the logP was found to be 1.87. As for `CC(=O)N[C@H](C(=O)N[C@H](C(N)=O)C(C)C)[C@@H](C)O` (Ac-Thr-Val-NH2), the figure is -1.25; as for `CCC(=O)OC1(C(=O)CBr)C(C)CC2C3CCC4=CC(=O)C=CC4(C)C3(F)C(=O)CC21C` (stereo not given), 3.55; as for `CCN(CC)C(=O)SCc1ccc(Cl)cc1`, 3.4.

In turn, `Ic1ccc2ccccc2n1` yielded a logP of 3.04. As for `CC1=CC(=O)C=C(Br)C1=O`, the figure is 1.21.

Compound `CN(C)C(=O)c1cccnc1` showed a logP of -0.48.

`CCCCOc1ccc(CC(=O)NO)cc1` gave a logP of 2.08. The value for `CSc1ccc(SC)nn1` was 1.85; that for `CC(=O)c1ccc(F)cc1` was 1.72; that for `CC1(C)N=C(N)N=C(N)N1c1ccc(F)cc1` was 0.37. The value for `CC(=O)NC(C)C(=O)NC(CC(=O)O)C(=O)NC(C)C(=O)NC(C)(C)C` (stereo not drawn) (Ac-Ala-Asp-Ala-NHtBu; configuration not given here) was -0.74.

For the compound `c1ccc(Cn2ccnn2)cc1`, the logP stood at 1.27. The compound `CCCOc1ccc(O)cc1` showed a logP of 2.33.

Compound `CC(=O)NCC(=O)N[C@@H](CC(C)C)C(N)=O` returned a logP of -0.78. `N#Cc1cccc(F)c1` showed a logP of 1.47. As for `O=Nc1ccc(O)cc1`, the figure is 1.29; as for `COc1c(O)c(OC)c(OC)c(O)c1OC`, 0.39; as for `CS(=O)(=O)c1cccc([N+](=O)[O-])c1`, 0.5. As for `O=C(O)Cc1ccc(OCCCc2ccccc2)c(Cl)c1`, the figure is 3.9; as for `COc1ccc([N+](=O)[O-])cn1`, 1.55. `O=C(CN1CCCCC1)Nc1ccccc1[N+](=O)[O-]` displayed a logP of 2.75.

With `COc1cccc(NC(=O)N(CCCl)N=O)c1`, the logP stood at 2.66. The logP values of the last two compounds are within 0.2 log units of each other. The value for `N#Cc1c[nH]c2ccccc12` was 2.32. The value for `Cn1nnnc1SCC1=C(C(=O)O)N2C(=O)C(NC(=O)CSCC#N)C2SC1` (stereo not given) was -0.62. As to `O=C(O)c1ccc2cccccc1-2`, the logP amounted to 2.88. As for `O=C1C(=O)c2ccccc2-c2ccccc21`, the figure is 2.52; as for `Cc1ccc(C)c(C)c1`, 3.63; as for `COc1ccc2c(c1)N(CCCN(C)C)c1ccccc1S2`, 4.9. As for `CS(=O)(=O)ON1C(=O)c2ccc([N+](=O)[O-])cc2C1=O`, the figure is 1.71; as for `O=C1c2ccccc2Cc2ccccc21`, 3.66. As for `Cn1cccc1`, the figure is 1.21. For the compound `Cc1ccc(OCC(=O)O)cc1`, the lipophilicity (logP) worked out at 1.86. `c1ccc(OP2OCCO2)cc1` yielded a logP of 1.42.

`Nc1nc(N)nc(N)n1` registered a lipophilicity (logP) of -1.37. The value for `NCc1ccco1` was 0.37; that for `Cc1ccccc1OCC(O)CO` (stereo not given) was 1.41; that for `COc1ccc(CO)cc1` was 1.1.
